Our source for the IC50 values is patent publication US12582641B2, “Sulfur-containing compound based on glutarimide skeleton and application thereof” (SHANGHAITECH UNIVERSITY, priority 2019, dated 2026).

The test system of the assay is MM.1S cells. Put plainly: Proliferation inhibition (IC50) in MM.1S cells, cell viability assay. Conditions: Homo sapiens, MM1.S, 72 h, read-out: IC50 (nM), proliferation inhibitory activity of MM.1S cells (half inhibitory concentration).
Description: MM.1S (B lymphoblast) was purchased from ATCC. Complete medium was RPMI1640 supplemented with 10% FBS and 1% Penicillin-Streptomycin. The cells used were identified as correct cells by STR cells, and were negative for mycoplasma through routine inspections.
IC50 values of the compounds of the present disclosure were measured using Cell Titer Blue, Cell Titer GLO, or WST reagent from Promega Company. Assay details are as follows: Cells were seeded in 100 μL RPMI1640 complete medium containing serum at a density of 15,000 cells/well. After 24 h, the inoculated cells were treated with diluted commercial inhibitor and the compounds of the present disclosure to be tested after serial dilution. After the cells were treated with the compounds of the present disclosure to be tested for 72 h, cell viability was determined after adding the cell viability detection kit listed above according to the reagent operating instructions. The negative control was DMSO, and the positive control was a commercial inhibitor, both of which were used to treat the cells through the same method as that of the compounds of the present disclosure. The growth inhibition of the compounds of the present disclosure on cells was plotted by Prism Graphpad software, and the IC50 values of the compounds of the present disclosure were calculated therefrom.
We tested the activities of the compounds of the present invention in MM.1S cell (which overexpressed IKZF1/3 and is highly sensitive to immunomodulatory drugs) through a dose-dependent manner. The cells were treated with the compounds of the present invention at 10 different successively decreasing concentrations (starting at the highest concentration of 10 μM; 5-fold serial dilutions) for 72 h, and then the cell viability determination was performed in accordance with CCK-8 reagent operating instructions. The experiment was repeated more than three times.
Turning to `O=C1CCC(N2Cc3c(SCc4ccc(CN5CCOCC5)cc4)cccc3C2=O)C(=O)N1` (stereo not shown) [SIAIS1220167, 3-(4-((4-(morpholinomethyl)benzyl)thio)-1-oxoisoindolin-2-yl)piperidine-2,6-dione], the IC50 was 0.25 ± 0.01 nM.
The result for `O=C(CCCCN1CCCCC1)NCCSc1cccc2c1CN(C1CCC(=O)NC1=O)C2=O` (stereo not shown) [SIAIS1220169, N-(2-((2-(2,6-dioxopiperidin-3-yl)-1-oxoisoindolin-4-yl)thio)ethyl)-5-(piperidin-1-yl)pentanamide] reads 43 nM.
In the case of `O=C1CCC(N2Cc3c(SCCCCCCCNCC45CC6CC(CC(C6)C4)C5)cccc3C2=O)C(=O)N1` (stereo not shown) [SIAIS1220171, 3-(4-((7-(((adamantan-1-yl)methyl)amino)heptyl)thio)-1-oxoisoindolin-2-yl)piperidine-2,6-dione], the IC50 worked out at 0.044 ± 0.003 nM.
The result for `O=C1CCC(N2Cc3c(SCCCCCCNC45CC6CC(CC(C6)C4)C5)cccc3C2=O)C(=O)N1` (stereo not shown) [SIAIS1220177, 3-(4-((6-((adamantan-1-yl)amino)hexyl)thio)-1-oxoisoindolin-2-yl)piperidine-2,6-dione] reads 0.041 ± 0.018 nM; that for `O=C1CCC(N2Cc3c(SCCCCCCNC4C5CC6CC(C5)CC4C6)cccc3C2=O)C(=O)N1` (stereo not shown) [SIAIS1220179, 3-(4-((6-((adamantan-2-yl)amino)hexyl)thio)-1-oxoisoindolin-2-yl)piperidine-2,6-dione], 0.036 ± 0.01 nM; that for `O=C1CCC(N2Cc3c(SCCCCCCNC4CCCCC4)cccc3C2=O)C(=O)N1` (stereo not shown) [SIAIS1220183, 3-(4-((6-(cyclohexylamino)hexyl)thio)-1-oxoisoindolin-2-yl)piperidine-2,6-dione], 0.197 nM.
For `O=C1CCC(N2Cc3c(SCCCCCCCNC4CCCCC4)cccc3C2=O)C(=O)N1` (stereo not shown) [SIAIS1220185, 3-(4-((7-(cyclohexylamino)heptyl)thio)-1-oxoisoindolin-2-yl)piperidine-2,6-dione], the IC50 turned out to be 0.026 ± 0.007 nM.
`O=C1CCC(N2Cc3c(SCCCCCCCNc4ccccc4)cccc3C2=O)C(=O)N1` (stereo not shown) [SIAIS1220187, 3-(1-oxo-4-((7-(phenylamino)heptyl)thio)isoindolin-2-yl)piperidine-2,6-dione]: the IC50 was 0.598 nM.
The same measure for `CN(CCCCCCCSc1cccc2c1CN(C1CCC(=O)NC1=O)C2=O)c1ccccc1` (stereo not shown) [SIAIS1220189, 3-(4-((7-(methyl(phenyl)amino)heptyl)thio)-1-oxoisoindolin-2-yl)piperidine-2,6-dione]: 0.553 nM.
The result for `O=C1CCC(N2Cc3c(SCCCCCCCN4CCCCCCC4)cccc3C2=O)C(=O)N1` (stereo not shown) [SIAIS1220193, 3-(4-((7-(azocan-1-yl)heptyl)thio)-1-oxoisoindolin-2-yl)piperidine-2,6-dione] reads 0.03 ± 0.01 nM; that for `O=C1CCC(N2Cc3c(SCCCCCCC(=O)NC45CC6CC(CC(C6)C4)C5)cccc3C2=O)C(=O)N1` (stereo not shown) [SIAIS1220195, N-(adamantan-1-yl)-7-((2-(2,6-dioxopiperidin-3-yl)-1-oxoisoindolin-4-yl)thio)heptanamide], 0.048 nM; that for `CC12CC3CC(C)(C1)CC(NC(=O)CCCCCCSc1cccc4c1CN(C1CCC(=O)NC1=O)C4=O)(C3)C2` (stereo not shown) [SIAIS1220197, N-(3,5-dimethyladamantan-1-yl)-7-((2-(2,6-dioxopiperidin-3-yl)-1-oxoisoindolin-4-yl)thio)heptanamide], 0.578 nM.
On to `O=C1CCC(N2Cc3c(SCCCCCCC(=O)NC4C5CC6CC(C5)CC4C6)cccc3C2=O)C(=O)N1` (stereo not shown) [SIAIS1220199, N-(adamantan-2-yl)-7-((2-(2,6-dioxopiperidin-3-yl)-1-oxoisoindolin-4-yl)thio)heptanamide], for which the IC50 is 0.026 ± 0.001 nM.
On to `O=C1CCC(N2Cc3c(SCc4ccc(CNC56CC7CC(CC(C7)C5)C6)cc4)cccc3C2=O)C(=O)N1` (stereo not shown) [SIAIS1221003, 3-(4-((4-(((adamantan-1-yl)amino)methyl)benzyl)thio)-1-oxoisoindolin-2-yl)piperidine-2,6-dione], for which the IC50 stood at 0.024 ± 0.01 nM.
The result for `O=C1CCC(N2Cc3c(SCc4ccc(CNC5C6CC7CC(C6)CC5C7)cc4)cccc3C2=O)C(=O)N1` (stereo not shown) [SIAIS1221005, 3-(4-((4-((adamantan-2-ylamino)methyl)benzyl)thio)-1-oxoisoindolin-2-yl)piperidine-2,6-dione] reads 0.035 ± 0.007 nM; that for `O=C1CCC(N2Cc3c(SCCCCCCNCC45CC6CC(CC(C6)C4)C5)cccc3C2=O)C(=O)N1` (stereo not shown) [SIAIS1221013, 3-(4-((6-((adamantan-1-ylmethyl)amino)hexyl)thio)-1-oxoisoindolin-2-yl)piperidine-2,6-dione], 0.028 ± 0.012 nM; that for `O=C1CCC(N2Cc3c(SCCCCCCCN4CCC5(CCCCC5)CC4)cccc3C2=O)C(=O)N1` (stereo not shown) [SIAIS1221015, 3-(4-((7-(3-azaspiro[5.5]undecan-3-yl)heptyl)thio)-1-oxoisoindolin-2-yl)piperidine-2,6-dione], 0.04 ± 0.01 nM.
With `CC1(C)[C@@H]2CC[C@@]1(C)[C@@H](NCCCCCCCSc1cccc3c1CN(C1CCC(=O)NC1=O)C3=O)C2` (stereo partly drawn) [SIAIS1221019, 3-(1-oxo-4-((7-(((1R,2S,4R)-1,7,7-trimethylbicyclo[2.2.1]heptan-2-yl)amino)heptyl)thio)isoindolin-2-yl)piperidine-2,6-dione], the IC50 amounted to 0.007 nM.
For the molecule `CC1CC(C)CN(CCCCCCCSc2cccc3c2CN(C2CCC(=O)NC2=O)C3=O)C1` (stereo not shown) [SIAIS1221021, 3-(4-((7-(3,5-dimethylpiperidin-1-yl)heptyl)thio)-1-oxoisoindolin-2-yl)piperidine-2,6-dione], the IC50 came out at 0.047 ± 0.001 nM.
On to `O=C1CCC(N2Cc3c(SCCCCCCCSC45CC6CC(CC(C6)C4)C5)cccc3C2=O)C(=O)N1` (stereo not shown) [SIAIS1221025, 3-(4-((7-(adamantan-1-ylthio)heptyl)thio)-1-oxoisoindolin-2-yl)piperidine-2,6-dione], for which the IC50 worked out at 0.061 nM.
The same measure for `CC1(C)CCN(CCCCCCCSc2cccc3c2CN(C2CCC(=O)NC2=O)C3=O)CC1` (stereo not shown) [SIAIS1221027, 3-(4-((7-(4,4-dimethylpiperidin-1-yl)heptyl)thio)-1-oxoisoindolin-2-yl)piperidine-2,6-dione]: 0.038 ± 0.006 nM; for `CC1(C)CCC(NCCCCCCCSc2cccc3c2CN(C2CCC(=O)NC2=O)C3=O)CC1` (stereo not shown) [SIAIS1221029, 3-(4-((7-((4,4-dimethylcyclohexyl)amino)heptyl)thio)-1-oxoisoindolin-2-yl)piperidine-2,6-dione]: 0.025 nM; for `O=C1CCC(N2C(=O)c3cccc(SCCCCCCCN4CCCCC4)c3C2=O)C(=O)N1` (stereo not shown) [SIAIS1221033, 2-(2,6-dioxopiperidin-3-yl)-4-((7-(piperidin-1-yl)heptyl)thio)isoindoline-1,3-dione]: 1.62 nM.
The same measure for `O=C1CCC(N2C(=O)c3cccc(SCCCCCCCNC45CC6CC(CC(C6)C4)C5)c3C2=O)C(=O)N1` (stereo not shown) [SIAIS1221069, 4-((7-((adamantan-1-yl)amino)heptyl)thio)-2-(2,6-dioxopiperidin-3-yl)isoindoline-1,3-dione]: 0.02 nM; for `O=C1CCC(N2Cc3c(SCc4ccc(CNC5CCCCC5)cc4)cccc3C2=O)C(=O)N1` (stereo not shown) [SIAIS1221071, 3-(4-((4-((cyclohexylamino)methyl)benzyl)thio)-1-oxoisoindolin-2-yl)piperidine-2,6-dione]: 0.072 ± 0.004 nM; for `O=C1CCC(N2C(=O)c3ccc(SCCCCCCCNC45CC6CC(CC(C6)C4)C5)cc3C2=O)C(=O)N1` (stereo not shown) [SIAIS1221075, 5-((7-((adamantan-1-yl)amino)heptyl)thio)-2-(2,6-dioxopiperidin-3-yl)isoindoline-1,3-dione]: 15.8 nM.
In the case of `CC1(C)[C@@H]2CC[C@@]1(C)[C@@H](NCCCCCSc1cccc3c1CN(C1CCC(=O)NC1=O)C3=O)C2` (stereo partly drawn) [SIAIS1221113, 3-(1-oxo-4-((5-(((1R,2S,4R)-1,7,7-trimethylbicyclo[2.2.1]heptan-2-yl)amino)pentyl)thio)isoindolin-2-yl)piperidine-2,6-dione], the IC50 came out at 0.027 nM.
Consider `CC1(C)[C@@H]2CC[C@@]1(C)[C@@H](NCCCCCCSc1cccc3c1CN(C1CCC(=O)NC1=O)C3=O)C2` (stereo partly drawn) [SIAIS1221115, 3-(1-oxo-4-((6-(((1R,2S,4R)-1,7,7-trimethylbicyclo[2.2.1]heptan-2-yl)amino)hexyl)thio)isoindolin-2-yl)piperidine-2,6-dione], for which the IC50 came to 0.082 nM.
As for `O=C1CCC(N2Cc3c(SCCCCCNC45CC6CC(CC(C6)C4)C5)cccc3C2=O)C(=O)N1` (stereo not shown) [SIAIS1221117, 3-(4-((5-((adamantan-1-yl)amino)pentyl)thio)-1-oxoisoindolin-2-yl)piperidine-2,6-dione], the IC50 came out at 0.06 nM.
The same measure for `O=C1CCC(N2Cc3c(SCCCCCCN4CCC5(CCCCC5)CC4)cccc3C2=O)C(=O)N1` (stereo not shown) [SIAIS1221121, 3-(4-((6-(3-azaspiro[5.5]undecan-3-yl)hexyl)thio)-1-oxoisoindolin-2-yl)piperidine-2,6-dione]: 0.057 nM; for `O=C1CCC(N2Cc3c(SCCCCCN4CCC5(CCCCC5)CC4)cccc3C2=O)C(=O)N1` (stereo not shown) [SIAIS1221123, 3-(4-((5-(3-azaspiro[5.5]undecan-3-yl)pentyl)thio)-1-oxoisoindolin-2-yl)piperidine-2,6-dione]: 0.051 nM; for `CN(CCCCCCCSc1cccc2c1CN(C1CCC(=O)NC1=O)C2=O)C1CCC(C)(C)CC1` (stereo not shown) [SIAIS1221125, 3-(4-((7-((4,4-dimethylcyclohexyl)(methyl)amino)heptyl)thio)-1-oxoisoindolin-2-yl)piperidine-2,6-dione]: 0.035 nM.
With `CN(CCCCCCSc1cccc2c1CN(C1CCC(=O)NC1=O)C2=O)CC12CC3CC(CC(C3)C1)C2` (stereo not shown) [SIAIS1221127, 3-(4-((6-((adamantan-1-ylmethyl)(methyl)amino)hexyl)thio)-1-oxoisoindolin-2-yl)piperidine-2,6-dione], the IC50 worked out at 0.059 nM.
The result for `CN(CCCCCCCSc1cccc2c1CN(C1CCC(=O)NC1=O)C2=O)[C@H]1C[C@H]2CC[C@]1(C)C2(C)C` (stereo partly drawn) [SIAIS1221129, 3-(4-((7-(methyl((1R,2S,4R)-1,7,7-trimethylbicyclo[2.2.1]heptan-2-yl)amino)heptyl)thio)-1-oxoisoindolin-2-yl)piperidine-2,6-dione] reads 0.021 nM.
